How the values were obtained:
Format in all cases: in vivo, C57BL/6 mouse
Conditions in all cases: 15 mg/kg orally for 14 days, foot pad electric shock and restraint stress, cerebral cortex obtained on Day 17
neuropeptide Y mRNA = assay: mRNA expression level of neuropeptide Y in cerebral cortex, stress-induced sleep disturbance model (real-time PCR)
Protocol: (§1) 100 mg/kg extract of Fraxinus rhynchophylla and 15 mg/kg doxepin (Sigma-Aldrich, St. Louis, Mo., USA) were dissolved respectively in PBS to the designated concentration. After aliquoting them according to the required administration amount, it was orally administered in an amount of 0.1 ml for each, one hour before applying stress. To the normal and stress control, PBS was orally administered in an amount of 0.1 ml for each.
(§2) Seven-week old male C57BL/6 mouse with bodyweight of 20 to 22 g was obtained from DBL Co., Ltd. (Eumseong-Gun, Chungcheong-Bukdo, Korea). […]
(§3) Expression pattern of the gene in cerebral cortex, which has been removed from each test animal upon the completion of the test, was determined by real-time PCR. The cerebral cortex tissues of a mouse were treated with RNAzolB (Tel-Test) to extract RNA, and then analyzed by cDNA and real-time PCR instrument using One-step SYBR Green PCR kit (AB science). […] Real time quantitative PCR was carried out by using Applied Biosystems 7500 Real-Time PCR system (Applied Biosystems, USA).
Thereafter, foot pad electric shock and restrain were applied to the mouse and then cerebral cortex was collected by autopsy of the mouse to obtain RNA. cDNA was then prepared and mRNA expression of neuropeptide Y was analyzed by using real-time gene analyzer.

[1] = tested on: GAD65 (glutamic acid decarboxylase 65) mRNA; assay: mRNA expression level of GAD65 in cerebral cortex, stress-induced sleep disturbance model (real-time PCR)
Protocol: as §1, §2, §3
(§4) Thereafter, foot pad electric shock and restrain were applied to the mouse and then cerebral cortex was collected by autopsy of the mouse to obtain RNA. cDNA was then prepared and mRNA expression level of GAD65 and GAD67 was analyzed by using real-time gene analyzer.

[2] = tested on: GAD67 (glutamic acid decarboxylase 67) mRNA; assay: mRNA expression level of GAD67 in cerebral cortex, stress-induced sleep disturbance model (real-time PCR)
Protocol: as §1, §2, §3, §4

CN(C)CCC=C1c2ccccc2COc2ccccc21 [doxepin]
mRNA expression level of neuropeptide Y in cerebral cortex compared to the control (neuropeptide Y mRNA): increased in statistically significant sense | mRNA expression level of neuropeptide Y in cerebral cortex compared to the control (neuropeptide Y mRNA; listed as positive control): higher expression in significant sense | mRNA expression level of GAD65 in cerebral cortex compared to the control [1]: tend to show higher expression | mRNA expression level of GAD67 in cerebral cortex compared to the control [2]: tend to show higher expression

Reference: patent US20210338761A1, “COMPOSITION FOR PREVENTING, AMELIORATING, OR TREATING SLEEP DISTURBANCE COMPRISING EXTRACT OF FRAXINUS SP. PLANT AS EFFECTIVE COMPONENT” (KOREA INSTITUTE OF ORIENTAL MEDICINE, priority 2018, published 2021)
